In patent US8008491B2, “Substituted AZA-indoles as inhibitors of poly(ADP-ribose) polymerase (PARP)” (Aventis Pharmaceuticals, Inc., priority 2003, dated 2011):
Where a name gives a salt, the structure may show the parent alone.

Key:
human PARP (PARP1) [1] = molecular target: T1, human PARP (PARP1) (Homo sapiens, UniProt P09874); experiment: Radioactivity enzyme assay: incorporation of labeled NAD into acid-precipitated protein; format: biochemical; details: reference compounds, NAD 200 μm
Source text: Full length human PARP (PARP1) is assembled from PCR fragments of a clone from a human brain cDNA library and two Incyte clones. The PARP gene (3046 bp) is sub-cloned into pFastBac-HTb vector to give PARP-pFastBac-HTh and the sequence of this clone is verified. PARP-pFastBac-HTb is expressed to obtain protein using the Bac-to-Bac expression protocol from Gibco-BRL. The recombinant virus generated is used to scale up the material for purification.
Cell pellets from cell broth of cells expressing PARP are treated with a cocktail of protease inhibitors and lysed by 4 freeze-thaw cycles. The material is suspended in 10 mM HEPES/0.1M NaCl/pH 7.2, stirred, and then centrifuged. A 40%-70% ammonium sulfate cut of protein pellet is obtained from the supernatant. The pellet is solubilized in 10 mM HEPES/pH 7.2 and centrifuged. The supernatant buffer is exchanged to 10 mM HEPES/pH 7.2/0.1M NaCl/25% glycerol by dialysis or with a desalting column. The enzyme preparation is stored at −20° C. until use.
Incorporation of radioactivity from labeled NAD into acid-precipitated protein is measured. […] After washing with TCA and ethanol, the filter is dried and counted for tritium CPM after addition of scintillation fluid.

[2] = system: HL-60 (human leukemia) cells; experiment: Cell-based assay: protection from cell death induced by serum deprivation (Alamar Blue); details: median effective concentration preventing cell death, HL-60, 0.1% FCS, 24 hr
Description: HL-60 (human leukemia) cells are grown and maintained using standard procedures in RPMI 1640+Glutamax medium supplemented with 10% fetal calf serum (FCS). For assay, cells are suspended in medium supplemented with 0.1% FCS at 0.5 million cells/mL and seeded into 96 well plates (100 μL/well). After preincubation for 3 hrs, cells are treated with compound for 1 hr, then Alamar Blue (Serotec) is added to the cells. After a further 24 hr incubation, fluorescence is measured (ex 560 nm, em 590 nm). Decrease in fluorescence compared to control cells (10 μM of a potent PARP inhibitor) is a measure of cell death. Increased fluorescence in the presence of test compound indicates protection from cell death induced by serum deprivation. For detection of polyADP-ribosylation, cells are subjected to serum deprivation in the presence and absence of compound. Cells are lysed and proteins are run on an SDS-PAGE gel. PolyADP-ribosylated proteins are detected with antibody to polyADP-ribose (Alexis or Calbiochem).
The results obtained from this study are expressed as EC50 (median effective concentration of the test compound that was effective in preventing the cell death—expressed in micromolar (μM) concentration) for each of the tested compounds and are summarized in Table 4.

human PARP (PARP1) [3] = molecular target: T1, human PARP (PARP1); experiment: PARP enzyme assay of Table 3 (radioactive enzyme assay or 'ELISA' enzyme assay); details: IC50 (μM), fifty percent inhibitory concentration; recombinant human PARP;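 further: Baculovirus-expressed PARP1 from insect cells, activity read as tritium from labeled NAD in acid-precipitated protein, or as biotin-NAD built into plate-bound histone by absorbance at 450 nm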
Description: The compounds of this invention are then tested with this enzyme preparation using either the radioactive enzyme assay or by the “ELISA” enzyme assay as set forth below.
Incorporation of radioactivity from labeled NAD into acid-precipitated protein is measured. The reaction mixture (volume 100 μL or 50 μL, in a test-tube or 96-well plate) contained 100 μg/mL calf thymus DNA (sonicated), 100 μg/mL histones, 100 mM Tris (pH 8.0), 1.0 mM DTT, 10 mM MgCl2, NAD (200 μm, 0.65 microcurie/mL), and varying amounts of enzyme. The reaction was incubated for 10 min at 37° C. or at room temperature for 60 min. The reaction was stopped and protein precipitated by addition of ice-cold trichloroacetic acid (TCA; 10% or 20% aqueous w/v). After brief storage in ice or at 4° C. for 2 hrs, the reaction mixture is filtered under vacuum through a glass fiber filter (2.5 cm disc, or 96-well filter plate). After washing with TCA and ethanol, the filter is dried and counted for tritium CPM after addition of scintillation fluid.
Incorporation of biotin-NAD into histone coated on plate is measured. A 96-well protein-binding EIA plate is coated with histone and blocked with bovine serum albumin. The reaction mixture (50 μL) contained DNA, buffer, enzyme, (test compound), and 250 μM of NAD and 5 μL of biotin-NAD (Trevigen). After reaction at room temperature the wells are washed and treated with Extravidin (Sigma). After incubation and washing color is developed with the peroxidase substrate TMB (Sigma). The TMB reaction is quenched with 2M sulfurric acid and the absorbance at 450 nm is read.

Male Fisher 344 rats = experiment: Stroke model: middle cerebral artery (MCA) occlusion, infarct volume; format: in vivo, rat; details: total dose 40 mg/kg i.v. (10 mg/kg bolus plus 5 mg/kg/hr for 6 hrs) 15 min after MCA occlusion; 48 hours post-occlusion
Description: Male Fisher 344 rats are anesthetized. The right carotid artery is isolated and ligated, and the right jugular vein is canulated for compound administration. The middle cerebral artery (MCA) was exposed through a craniotomy, and the MCA and its right branch, the lenticulostriate artery are electrocoagulated. The arteries are cut to avoid recanalization. […] The compounds are given as a 10 mg/kg bolus followed by an infusion of 5 mg/kg/hr for 6 hrs (total dose 40 mg/kg).
48 Hours post-MCA occlusion the rats are sacrificed, and the brains removed and cut into 2-mm coronal sections.
A total dose of 40 mg/kg of 2-(piperazin-1-yl)-1-phenyl-1H-indole-3-carboxaldehyde (Example 3) is given as bolus plus infusion as described above.

Male Sprague-Dawley rats = experiment: Myocardial ischemia model: coronary artery occlusion and reperfusion, infarct size; format: in vivo, rat; details: 20 min occlusion, 60 min reperfusion; for infarct size (% of area at risk), effect when given prior to reperfusion: 10 mg/kg i.v. 5 min prior to reperfusion (Example 3); for infarct size (% of area at risk), effect when given prior to ischemia: 10 mg/kg i.v. 10 min prior to occlusion (Example 3)
Source text: Male Sprague-Dawley rats are anesthetized and the chest is opened. A thin silk thread is placed around the left anterior descending coronary artery. The silk is passed through a plastic tube and the chest is closed. After stable hemodynamics, the coronary artery is occluded by applying tension to the thread via the tube. Successful occlusion is confirmed by a decrease in systolic blood pressure and alterations in ECG. Reperfusion is initiated by releasing the tension on the ligature.
For testing efficacy of Example 3 in this animal model, animals are divided into three groups. One group received the compound of Example 3 at 10 mg/kg i.v. 10 min prior to occlusion. A second group received compound of Example 3 at the same dose 5 min prior to reperfusion. The third group served as vehicle control. The period of occlusion is 20 min, followed by reperfusion for 60 min. After sacrifice infarct size is measured by staining of heart tissue slices with triphenyltetrazolium chloride and expressed as a percent (%) of area at risk.
A similar study is carried out with cariporide, a reference standard.

T1 sequence (P09874 whole entry): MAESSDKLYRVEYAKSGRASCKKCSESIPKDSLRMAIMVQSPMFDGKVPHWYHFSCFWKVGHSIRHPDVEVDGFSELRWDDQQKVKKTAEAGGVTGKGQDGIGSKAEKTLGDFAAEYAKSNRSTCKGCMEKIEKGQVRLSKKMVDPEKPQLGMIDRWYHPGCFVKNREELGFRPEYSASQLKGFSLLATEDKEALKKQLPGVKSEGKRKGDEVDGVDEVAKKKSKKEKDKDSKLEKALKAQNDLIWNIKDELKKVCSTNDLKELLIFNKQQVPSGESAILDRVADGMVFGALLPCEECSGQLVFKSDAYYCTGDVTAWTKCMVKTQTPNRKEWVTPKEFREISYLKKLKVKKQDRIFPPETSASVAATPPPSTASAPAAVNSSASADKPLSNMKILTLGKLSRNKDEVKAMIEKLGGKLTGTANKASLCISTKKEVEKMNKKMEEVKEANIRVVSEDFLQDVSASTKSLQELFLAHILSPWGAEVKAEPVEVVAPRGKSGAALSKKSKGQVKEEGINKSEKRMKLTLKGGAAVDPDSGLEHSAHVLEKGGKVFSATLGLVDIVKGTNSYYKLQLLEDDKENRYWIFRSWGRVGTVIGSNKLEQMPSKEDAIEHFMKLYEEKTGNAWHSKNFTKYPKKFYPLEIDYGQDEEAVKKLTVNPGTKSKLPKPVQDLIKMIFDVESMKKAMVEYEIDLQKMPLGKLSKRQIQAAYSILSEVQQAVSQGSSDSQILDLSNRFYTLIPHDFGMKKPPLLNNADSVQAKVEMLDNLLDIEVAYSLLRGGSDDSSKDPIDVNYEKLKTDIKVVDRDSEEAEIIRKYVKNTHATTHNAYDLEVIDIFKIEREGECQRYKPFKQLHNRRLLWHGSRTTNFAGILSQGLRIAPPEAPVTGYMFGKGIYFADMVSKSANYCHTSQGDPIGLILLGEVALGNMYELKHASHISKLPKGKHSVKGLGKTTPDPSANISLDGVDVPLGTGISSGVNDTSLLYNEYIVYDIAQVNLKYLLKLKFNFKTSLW

Row | SMILES | IC50 (human PARP (PARP1) [3]) | further results
1 | Oc1cccc2c(O)nccc12 [1,5-isoquinolinediol] |  | IC50 (human PARP (PARP1) [1]): 1 µM
2 | O=Cc1c(N2CCNCC2)n(-c2ccsc2)c2ccccc12 [Example 12, 2-(Piperazin-1-yl)-1-(thien-3-yl)-1H-indole-3-carboxaldehyde] | 2 µM | EC50 [2]: 3 µM
3 | Cc1ccc(-n2c(N3CCNCC3)c(C=O)c3ccccc32)cc1 [Example 53, 1-(4-Methylphenyl)-2-(piperazin-1-yl)-1H-indole-3-carboxaldehyde] | 19.9 µM | 
4 | CC(C)(C)c1ccc(-n2c(N3CCNCC3)c(C=O)c3ccccc32)cc1 [Example 11B-4, 2-(Piperazin-1-yl)-1-(4-tert-butylphenyl)-1H-indole-3-carboxaldehyde] | 10 µM | 
5 | O=Cc1c(N2CCN(CCO)CC2)n(-c2ccccc2)c2ccccc12 [Example 2, 2-[4-(2-hydroxyethyl)piperazin-1-yl]-1-phenyl-1H-indole-3-carboxaldehyde] | 4.6 µM | EC50 [2]: 3.4 µM
6 | CC(C)(C)OC(=O)NCCN1CCN(c2c(C=O)c3ccccc3n2-c2ccccc2)CC1 [Example 19] | 8.8 µM | 
7 | O=Cc1c(N2CCNCC2)n(-c2cccc3ccccc23)c2ccccc12 [Example 11B-2, 2-(Piperazin-1-yl)-1-(1-naphthyl)-1H-indole-3-carboxaldehyde] | 4 µM | 
8 | N#Cc1ccc(-n2c(N3CCNCC3)c(C=O)c3ccccc32)cc1 [Example 63, 4-[3-Formyl-2-(piperazin-1-yl)-indol-1-yl]-benzonitrile] | 2.3 µM | 
9 | C=Cc1ccc(-n2c(N3CCNCC3)c(C=O)c3ccccc32)cc1 [Example 56, 2-(Piperazin-1-yl)-1-(4-vinylphenyl)-1H-indole-3-carboxaldehyde] | 1.5 µM | 
10 | O=Cc1c(N2CCNCC2)n(-c2ccc(F)cc2)c2ccccc12 [Example 54, 1-(4-Fluorophenyl)-2-(piperazin-1-yl)-1H-indole-3-carboxaldehyde Hydrochloride] | 3.1 µM | 
11 | Cc1ccc(-n2c(N3CCNCC3)c(C=O)c3ccccc32)cc1[N+](=O)[O-] [Example 50, 1-(4-Methyl-3-nitrophenyl)-2-(piperazin-1-yl)-1H-indole-3-carboxaldehyde] | 1.4 µM | 
12 | O=Cc1c(N2CCNCC2)n(-c2cccc(Br)c2)c2ccccc12 [Example 49, 1-(3-Bromophenyl)-2-piperazin-1-yl-1H-indole-3-carboxaldehyde] | 1.9 µM | 
13 | COc1ccc(-n2c(N3CCNCC3)c(C=O)c3ccccc32)cc1 [Example 11B-3, 2-(Piperazin-1-yl)-1-(4-methoxyphenyl)-1H-indole-3-carboxaldehyde] | 4.5 µM | 
14 | CCOc1cccc(-n2c(N3CCNCC3)c(C=O)c3ccccc32)c1 [Example 58, 1-(3-Ethoxyphenyl)-2-(piperazin-1-yl)-1H-indole-3-carboxaldehyde] | 0.85 µM | 
15 | Cn1c(N2CCNCC2)c(C=O)c2ccccc21 [Example 9, 2-(Piperazin-1-yl)-1-methyl-1H-indole-3-carboxaldehyde] | 27.5 µM | EC50 [2]: 8 µM
16 | O=Cc1c(N2CCNCC2)n(Cc2ccccc2)c2ccccc12 |  | melting point: 163 to 165 °C
17 | CCc1ccc(-n2c(N3CCNCC3)c(C=O)c3ccccc32)cc1 [Example 48, 1-(4-Ethylphenyl)-2-(piperazin-1-yl)-1H-indole-3-carboxaldehyde Hydrochloride] | 15.5 µM | 
18 | O=Cc1c(N2CCNCC2)n(-c2cccnc2)c2ccccc12 [Example 13, 2-(Piperazin-1-yl)-1-(pyridin-3-yl)-1H-indole-3-carboxaldehyde] | 3 µM | 
19 | O=Cc1c(N2CCCNCC2)n(-c2ccccc2)c2ccccc12 [Example 22, 2-[1,4]Diazepan-1-yl-1-phenyl-1H-indole-3-carboxaldehyde] | 4.5 µM | 
20 | O=Cc1c(N2CCNCC2)n(-c2ccccc2)c2ccccc12 [Example 3, 2-(Piperazin-1-yl)-1-phenyl-1H-indole-3-carboxaldehyde] | 2.5 µM | EC50 [2]: 1.9 µM; reduction in infarct volume (Male Fisher 344 rats): 40-50%; infarct size (% of area at risk), effect when given prior to reperfusion (Male Sprague-Dawley rats): small but significant effect; infarct size (% of area at risk), effect when given prior to ischemia (Male Sprague-Dawley rats): significant protection
21 | O=Cc1c(N2CCOCC2)n(-c2ccccc2)c2ccccc12 [Example 43, 2-(Morpholin-4-yl)-1-phenyl-1H-indole-3-carboxaldehyde] | 11.4 µM | 
22 | CC(C)c1ccc(C(=O)NC(=N)N)cc1S(C)(=O)=O [cariporide, reference compound] |  | infarct size (% of area at risk), effect when given prior to reperfusion (Male Sprague-Dawley rats): no effect; infarct size (% of area at risk), effect when given prior to ischemia (Male Sprague-Dawley rats): significant protection
